Assay results taken from publication PMC10424186 (Journal of Medicinal Chemistry, 2023).
Where two headings read alike, the source gives them in different places.

Legend:
[1] = biological target: T1, PHD2 (Homo sapiens, UniProt Q9GZT9); test: SPE-MS PHD2 inhibition assay (HIF-1α CODD hydroxylation); assay type: biochemical; conditions: Table 2; PHD2 181–426 […], 5.0 μM HIF-1α CODD; n = 2, mean ± SD
T1 construct: His6-PHD2_181–426; made in house; host or cells: Escherichia coli
Protocol: (§1) H3_1-15K9me3, histone 3 (H3), residues 1–15 with K9 of H3-bearing three methyl groups at the N^ε-position, K4 of H3 substituted by an alanine residue, and K14 of H3 by an isoleucine residue,[73] for KDM4E; and RPL27A, residues 31–49, for RIOX2 (Mina53).[44]
(§2) Cosubstrate/cofactor stock solutions [L-ascorbic acid/LAA: 50 mM in MQ-grade water; 2-oxoglutarate/2OG: 10 mM in MQ-grade water; ammonium iron(II) sulfate hexahydrate/FAS/(NH4)2Fe(SO4)2·6H2O: 400 mM in 20 mM HCl diluted to 1 mM in MQ-grade water] were freshly prepared from commercial solids (Sigma-Aldrich) on the day the assays were performed. The JMJD5,[42] PHD2,[70] FIH,[70] KDM4E,[72],[73] RIOX2,[44] and AspH[45] […] For JMJD5, PHD2, FIH, RIOX2, and AspH, substrate hydroxylation was monitored (+16 Da mass shift), while for the KDM4E substrate, demethylation was monitored (−14 Da mass shift) by SPE-MS.

[2] = biological target: T2, KDM4E (Homo sapiens, UniProt B2RXH2); test: SPE-MS KDM4E inhibition assay (demethylation of H3 1–15 K9me3); assay type: biochemical; conditions: Table 2, 10.0 μM H3 1–15 K9me3, n = 2, mean ± SD
T2 construct: made in house; host or cells: Escherichia coli
T2 sequence (B2RXH2 1-506): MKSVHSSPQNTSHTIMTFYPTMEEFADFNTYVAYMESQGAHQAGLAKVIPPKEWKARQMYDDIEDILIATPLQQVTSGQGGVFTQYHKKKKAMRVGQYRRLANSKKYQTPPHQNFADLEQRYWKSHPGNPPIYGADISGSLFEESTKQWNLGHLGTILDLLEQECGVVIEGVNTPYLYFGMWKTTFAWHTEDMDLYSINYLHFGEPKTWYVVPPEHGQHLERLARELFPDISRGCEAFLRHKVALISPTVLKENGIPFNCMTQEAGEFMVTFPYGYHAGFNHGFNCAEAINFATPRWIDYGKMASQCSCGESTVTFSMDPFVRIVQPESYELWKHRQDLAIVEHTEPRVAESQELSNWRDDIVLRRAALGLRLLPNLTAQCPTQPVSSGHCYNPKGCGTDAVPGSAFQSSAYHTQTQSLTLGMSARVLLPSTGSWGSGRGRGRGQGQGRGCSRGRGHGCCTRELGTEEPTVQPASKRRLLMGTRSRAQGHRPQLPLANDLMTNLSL
Protocol: as §1, §2

[3] = biological target: human JMJD5 (Homo sapiens, UniProt Q8N371); test: SPE-MS JMJD5 inhibition assay (hydroxylation of RPS6 128–148 peptide); assay type: biochemical
Text: Synthetic peptides with sequences based on reported human 2OG oxygenase substrates were used in SPE-MS inhibition assays: RPS6, residues 128–148, for JMJD5;[42] HIF-α CODD, residues 558–574, for PHD2;[70] HIF-α CAD, residues 788–822, for FIH;[70] H3_1-15K9me3, histone 3 (H3), residues 1–15 with K9 of H3-bearing three methyl groups at the N^ε-position, K4 of H3 substituted by an alanine residue, and K14 of H3 by an isoleucine residue,[73] for KDM4E; and RPL27A, residues 31–49, for RIOX2 (Mina53).[44] All peptides were prepared as C-terminal amides by GL Biochem (Shanghai) Ltd. A synthetic thioether-linked cyclic peptide, hFX-CP101–119,[48] which was designed based on the reported cellular AspH substrate human coagulation factor X (hFX, residues 101–119; C101 was substituted for a D-alanine residue and C112 for a serine residue),[79] was used as AspH substrate; it was prepared with a C-terminal amide according to literature protocols.[80]
Cosubstrate/cofactor stock solutions [L-ascorbic acid/LAA: 50 mM in MQ-grade water; 2-oxoglutarate/2OG: 10 mM in MQ-grade water; ammonium iron(II) sulfate hexahydrate/FAS/(NH4)2Fe(SO4)2·6H2O: 400 mM in 20 mM HCl diluted to 1 mM in MQ-grade water] were freshly prepared from commercial solids (Sigma-Aldrich) on the day the assays were performed. The JMJD5,[42] PHD2,[70] FIH,[70] KDM4E,[72],[73] RIOX2,[44] and AspH[45] SPE-MS inhibition assays were performed as described in the cited literature, using isolated recombinant human enzymes (His6-thioredoxin-JMJD5,[42] His6-PHD2_181–426,[70] His6-FIH,[70] His6-KDM4E,[72],[73] His6-RIOX2_26–465,[87],[88] and His6-AspH315–758[48],[80]) and synthetic peptide substrates (RPS6_128–148 for JMJD5;[42] HIF-α CODD558–574 for PHD2;[70] HIF-α CAD788–822 for FIH;[70] H3_1–15K9me3 for KDM4E;[73] RPL27A31–49 for RIOX2;[44],[71] and hFX-CP101–119 for AspH;[45],[48] see above). For JMJD5, PHD2, FIH, RIOX2, and AspH, substrate hydroxylation was monitored (+16 Da mass shift), while for the KDM4E substrate, demethylation was monitored (−14 Da mass shift) by SPE-MS.

[4] = biological target: T3, AspH (Homo sapiens, UniProt Q12797); test: SPE-MS AspH inhibition assay (hFX-CP101–119 hydroxylation); assay type: biochemical; conditions: Table 2; His6-AspH315–758 0.05 μM, 1.0 μM hFX-CP101–119; n = 2, mean ± SD
T3 construct: N-terminally His6-tagged AspH315–758; made in house; host or cells: Escherichia coli
T3 sequence (Q12797 315-758): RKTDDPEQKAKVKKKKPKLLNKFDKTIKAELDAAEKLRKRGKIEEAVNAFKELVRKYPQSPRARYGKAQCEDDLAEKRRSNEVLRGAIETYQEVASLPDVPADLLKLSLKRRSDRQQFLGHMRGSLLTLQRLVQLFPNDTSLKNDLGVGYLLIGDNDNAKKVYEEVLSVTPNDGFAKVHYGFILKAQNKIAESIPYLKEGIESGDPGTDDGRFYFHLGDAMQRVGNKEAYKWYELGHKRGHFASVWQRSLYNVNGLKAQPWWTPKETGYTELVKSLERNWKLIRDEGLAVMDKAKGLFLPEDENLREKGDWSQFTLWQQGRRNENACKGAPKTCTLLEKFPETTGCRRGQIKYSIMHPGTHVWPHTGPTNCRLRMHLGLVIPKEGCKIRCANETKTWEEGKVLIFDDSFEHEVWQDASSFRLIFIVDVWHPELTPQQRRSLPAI
Protocol: as §1, §2

[5] = biological target: T4, RIOX2 (Homo sapiens, UniProt Q8IUF8); test: SPE-MS RIOX2 inhibition assay (RPL27A31–49 hydroxylation); assay type: biochemical; conditions: Table 2; His6-RIOX2 26–465 […], 5.0 μM RPL27A31–49; n = 2, mean ± SD
T4 construct: N-terminally His6-tagged RIOX2_26–465; made in house; host or cells: Escherichia coli
Protocol: Cosubstrate/cofactor stock solutions [L-ascorbic acid/LAA: 50 mM in MQ-grade water; 2-oxoglutarate/2OG: 10 mM in MQ-grade water; ammonium iron(II) sulfate hexahydrate/FAS/(NH4)2Fe(SO4)2·6H2O: 400 mM in 20 mM HCl diluted to 1 mM in MQ-grade water] were freshly prepared from commercial solids (Sigma-Aldrich) on the day the assays were performed. […] For JMJD5, PHD2, FIH, RIOX2, and AspH, substrate hydroxylation was monitored (+16 Da mass shift), while for the KDM4E substrate, demethylation was monitored (−14 Da mass shift) by SPE-MS.

[6] = biological target: T2, KDM4E; conditions: Supporting Table S1; reported FDH-coupled spectrophotometric assay; ref SI 17; cited from earlier work
[7] = Table 2, JMJD5 […], 2OG 2.0 μM, Fe(II) 2.0 μM, LAA 100 μM, RPS6 128–148 2.0 μM, n = 3, mean ± SD, read-out: IC50 JMJD5
[8] = Supporting Table S1, JMJD5 […], 2OG 2.0 μM, RPS6 128-148 2.0 μM, pH 7.5, 20 °C, n = 3, mean ± SD, read-out: IC50 JMJD5
[9] = supplementary CSV, read-out: IC50 JMJD5

T1 sequence (Q9GZT9 181-426): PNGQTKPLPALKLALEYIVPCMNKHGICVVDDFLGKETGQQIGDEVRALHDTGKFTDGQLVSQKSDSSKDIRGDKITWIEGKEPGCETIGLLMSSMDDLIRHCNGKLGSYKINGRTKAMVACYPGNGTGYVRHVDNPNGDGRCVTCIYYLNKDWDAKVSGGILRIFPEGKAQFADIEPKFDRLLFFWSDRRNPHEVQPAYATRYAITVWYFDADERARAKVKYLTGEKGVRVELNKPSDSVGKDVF
Sequence of human JMJD5 (Q8N371 whole entry, the tested form may be a part): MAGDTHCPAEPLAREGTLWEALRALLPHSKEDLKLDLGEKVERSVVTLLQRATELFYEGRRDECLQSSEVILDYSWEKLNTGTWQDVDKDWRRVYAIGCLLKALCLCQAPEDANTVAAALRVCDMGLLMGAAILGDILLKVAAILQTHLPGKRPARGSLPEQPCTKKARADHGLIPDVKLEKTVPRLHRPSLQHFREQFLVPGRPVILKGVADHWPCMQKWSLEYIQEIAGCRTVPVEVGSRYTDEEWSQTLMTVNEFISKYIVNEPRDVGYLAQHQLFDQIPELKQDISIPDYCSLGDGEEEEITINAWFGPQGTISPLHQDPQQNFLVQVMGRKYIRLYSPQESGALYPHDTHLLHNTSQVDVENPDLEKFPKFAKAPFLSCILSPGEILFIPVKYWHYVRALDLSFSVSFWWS
T4 sequence (Q8IUF8 26-465): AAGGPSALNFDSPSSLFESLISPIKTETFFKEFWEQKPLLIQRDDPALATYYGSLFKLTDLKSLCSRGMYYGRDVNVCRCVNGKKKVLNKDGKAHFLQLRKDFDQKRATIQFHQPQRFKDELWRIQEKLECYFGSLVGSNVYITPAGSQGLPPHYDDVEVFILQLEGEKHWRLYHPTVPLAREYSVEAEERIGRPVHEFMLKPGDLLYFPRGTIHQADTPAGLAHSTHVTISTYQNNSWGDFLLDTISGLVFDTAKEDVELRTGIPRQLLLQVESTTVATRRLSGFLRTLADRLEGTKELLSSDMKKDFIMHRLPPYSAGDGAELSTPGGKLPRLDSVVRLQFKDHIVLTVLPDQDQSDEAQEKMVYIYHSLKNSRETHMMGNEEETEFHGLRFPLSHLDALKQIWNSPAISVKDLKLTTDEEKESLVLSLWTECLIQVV

IC50 [3, 8] [µM] | IC50 [3, 9] [µM] | Structure (SMILES) | IC50 [6] [µM] | further results
 |  | O=C(O)c1cc(C(=O)O)c(NCCCCc2ccccc2)cn1 [Compound 20d, 5-((4-phenylbutyl)amino)pyridine-2,4-dicarboxylic acid] |  | IC50 [1]: 20.4 ± 0.8 µM; IC50 [2]: 3.6 ± 0.7 µM; IC50 [3, 7]: 0.4 ± 0.2 µM; IC50 [4]: 1.9 ± 0.2 µM
 |  | CC(Nc1cnc(C(=O)O)cc1C(=O)O)c1ccccc1 (centres unmarked) [Compound 20e] |  | IC50 [1]: > 50 µM; IC50 [2]: 22.7 ± 0.4 µM; IC50 [3, 7]: 17.5 ± 2.5 µM; IC50 ([3]; isolated recombinant JMJD5, SPE-MS, approximate values, read-out: IC50 for JMJD5 inhibition): ~17.5 µM; IC50 [4]: 5.9 ± 1.9 µM
 |  | O=C(O)c1cc(C(=O)O)c(NCC2CCCCC2)cn1 [Compound 20f] |  | IC50 [1]: > 50 µM; IC50 [2]: 3.2 ± 0.3 µM; IC50 [4]: 2.6 ± 0.6 µM; IC50 [5]: 34 ± 8.5 µM
 |  | O=C(O)c1cc(C(=O)O)c(NCc2ccc(C(F)(F)F)cc2)cn1 [Compound 20g] |  | IC50 [1]: > 50 µM; IC50 [2]: 6.2 ± 1.1 µM; IC50 [4]: 1.2 ± 0.1 µM
> 50 | > 50 | O=C(O)c1ccccc1Nc1c(C(=O)O)ccnc1C(=O)O [Compound 24] | 166 | 
46.9 ± 4.6 | 46.9 ± 4.6 | O=C(O)c1ccnc(C(=O)O)c1Nc1ccccc1F [Compound 25] |  | 
> 50 | > 50 | Cc1ccccc1Nc1c(C(=O)O)ccnc1C(=O)O [Compound 26] | 41 | 
29.6 ± 4.3 | 29.6 ± 4.3 | COc1ccccc1Nc1c(C(=O)O)ccnc1C(=O)O [Compound 27] | 19 | 
41.5 ± 2.2 | 41.5 ± 2.2 | CSc1ccccc1Nc1c(C(=O)O)ccnc1C(=O)O [Compound 28] | 48 | 
39.6 | 39.6 ± 11.2 | Nc1ccccc1Nc1c(C(=O)O)ccnc1C(=O)O [Compound 29] |  | 
> 50 | > 50 | CC(Nc1cnccc1C(=O)O)c1ccccc1 (centres unmarked) [Compound 30] |  | 
10.3 ± 3.1 | 10.3 ± 3.1 | O=C(O)c1ccnc(C(=O)O)c1NCCc1ccc(Cl)cc1 [Compound 31] |  | 
> 50 | > 50 | O=C(O)c1ccncc1NCCc1ccc(Cl)cc1 [Compound 32] |  | 
> 50 |  | COC(=O)c1ccnc(C(=O)OC)c1 [dimethyl 2,4-PDCA, reference compound] |  | JMJD5 inhibition (in words) ([3]; isolated recombinant JMJD5, SPE-MS): does not inhibit isolated recombinant JMJD5; JMJD5 inhibition (in words) ([3]; isolated recombinant JMJD5, SPE-MS, listed as dimethyl ester derivative of 1): does not inhibit isolated recombinant JMJD5 efficiently

Structure (SMILES) | IC50 [3, 8] [µM] | IC50 [3, 9] [µM] | IC50 [6] [µM] | further results
O=C(O)c1ccnc(C(=O)O)c1Nc1ccccc1 [Compound 21] | > 50 | > 50 | 19 | 
